Consider 26 compounds from patent publication US9440982B2 (Eolas Therapeutics, Inc., priority 2012, dated 2016).

pIC50: −log10 of the molar value.

One assay addresses T1, OX1 (Homo sapiens, UniProt O43613).
T1 construct: expressed in transfected cells; host or cells: CHO (CHO-OX1, kept under selection antibiotic)
T1 sequence (O43613 1-425): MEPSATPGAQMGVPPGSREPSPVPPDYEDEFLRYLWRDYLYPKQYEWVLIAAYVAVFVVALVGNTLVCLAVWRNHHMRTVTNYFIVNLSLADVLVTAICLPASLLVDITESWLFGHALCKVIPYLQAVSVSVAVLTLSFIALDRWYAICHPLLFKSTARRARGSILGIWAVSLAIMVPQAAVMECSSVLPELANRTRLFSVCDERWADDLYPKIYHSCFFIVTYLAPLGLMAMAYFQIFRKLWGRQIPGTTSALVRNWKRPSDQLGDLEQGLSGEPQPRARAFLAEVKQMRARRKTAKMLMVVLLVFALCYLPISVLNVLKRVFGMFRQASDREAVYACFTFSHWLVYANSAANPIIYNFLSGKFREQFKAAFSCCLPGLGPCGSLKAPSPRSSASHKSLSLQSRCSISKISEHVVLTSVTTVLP
Description: Orexin receptor cell-based functional assay, [Ca2+]i by FLIPR, CHO-OX1 cells. To be noted: CHO-OX1 cells, [Ca2+]i by FLIPR, antagonist dose-range 0.1 nM-10 μM, EC90 of OXA; read-out: OX1. On the procedure:
Measurement of [Ca^2+]i using a FLIPR: CHO—OX1 or CHO—OX2 cells are seeded into black-walled clear-base 384-well plates (Costar) at a density of 20,000 cells per well in F12-K medium supplemented with 10% FBS and selection antibiotic (500 ug/ml G418 or 15 ug/ml Blasticidin) and cultured overnight. The cells are incubated with equal volume of calcium4 loading buffer (Molecular Devices, Inc.) containing 2.5 mM probenecid at 37° C. for 30 min, followed by putative OX1 or OX2 receptor antagonists (dose-range 0.1 nM-10 μM) for another 30 min.
The cells are incubated with equal volume of calcium6 loading buffer (Molecular Devices, Inc.) containing 2.5 mM probenecid at 37° C. for 2 h, followed by test compounds (dose-range 0.1 nM-10 μM) for another 30 min.
Regarding `Cc1nc(C(=O)N2CCCC3CN(c4nc5ccc(Cl)cc5o4)CC32)c(-c2ccc(F)cc2)s1` (centres unmarked) [Example A76, (6-(6-Chlorobenzo[d]oxazol-2-yl)octahydro-1H-pyrrolo[3,4-b]pyridin-1-yl)(5-(4-fluorophenyl)-2-methylthiazol-4-yl)methanone], the pIC50 is less than 6.00.
The same measure, in the same setting: under `Cc1ccc(-n2nccn2)c(C(=O)N2CC3CCCC3C2CNc2ccc(C(F)(F)F)cn2)c1` (centres unmarked) [Example A69, (5-Methyl-2-(2H-1,2,3-triazol-2-yl)phenyl)(1-(((5-(trifluoromethyl)pyridin-2-yl)amino)methyl)hexahydrocyclopenta[c]pyrrol-2(1H)-yl)methanone] stands 7.68; under `C[C@@H]1CCCN(C(=O)c2c(-n3nccn3)ccc(F)c2F)[C@@H]1CNc1ccc(C(F)(F)F)cn1` [Example A336, (2,3-Difluoro-6-(2H-1,2,3-triazol-2-yl)phenyl)((2S,3R)-3-methyl-2-(((5-(trifluoromethyl)pyridin-2-yl)amino)m*ethyl)piperidin-1-yl)methanone], 8.00; under `Cc1ccc(-n2nccn2)c(C(=O)N2CCC[C@@H](C)[C@H]2CNc2nc3ccccc3o2)c1` [Example A180, ((2S,3R)-2-((Benzo[d]oxazol-2-ylamino)methyl)-3-methylpiperidin-1-yl)(5-methyl-2-(2H-1,2,3-triazol-2-yl)phenyl)methanone], 8.40.
Turning to `C[C@@H]1CCCN(C(=O)c2c(-c3ncccn3)ccc(F)c2F)[C@@H]1CNc1ncc(C(F)(F)F)cn1` [Example A389, (2,3-Difluoro-6-(pyrimidin-2-yl)phenyl)((2S,3R)-3-methyl-2-(((5-(trifluoromethyl)pyrimidin-2-yl)amino)methyl)piperidin-1-yl)methanone], the pIC50 was 8.30.
With `Cc1ccc(-c2ccccn2)c(C(=O)N2CCC[C@@H](C)[C@H]2CNc2ccc(C(F)(F)F)cn2)n1` [Example A217, ((2S,3R)-3-Methyl-2-(((5-(trifluoromethyl)pyridin-2-yl)amino)methyl)piperidin-1-yl)(6′-methyl-[2,3′-bipyridin]-2′-yl)methanone], the pIC50 is 6.82.
For `Cc1ccc(-c2ccccn2)c(C(=O)N2CCC[C@@H](C)[C@H]2CNc2ccc(F)cn2)c1` [Example A58, ((2S,3R)-2-(((5-Fluoropyridin-2-yl)amino)methyl)-3-methylpiperidin-1-yl)(5-methyl-2-(pyridin-2-yl)phenyl)methanone], the pIC50 is 6.64.
On to `C[C@@H]1CCCN(C(=O)c2nccc3ccccc23)[C@@H]1CNc1ncc(Cl)cn1` [Example A225, ((2S,3R)-2-(((5-Chloropyrimidin-2-yl)amino)methyl)-3-methylpiperidin-1-yl)(isoquinolin-1-yl)methanone], for which the pIC50 was 6.47.
On the same count and under the same terms, under `Cc1ccc(-c2cccnc2)c(C(=O)N2CCC[C@@H](C)[C@H]2CNc2ccc(Cl)cn2)n1` [Example A224] stands 7.89.

The same assay, now with this note: Table 2; CHO-OX1 cells, EC90 of OXA; read-out: IC50 Bioactivity OX1.
On to `Cc1cc2c(C(=O)NCC3CCC(F)(F)CN3C(=O)c3nc(C)sc3-c3ccc(F)cc3)cccc2o1` (racemic) [Example 57, rac-N-((5,5-Difluoro-1-(5-(4-fluorophenyl)-2-methylthiazole-4-carbonyl)piperidin-2-yl)methyl)-2-methylbenzofuran-4-carboxamide], for which the pIC50 is more than 7.00.
Still for that read-out and setting: under `O=C(NCC1C2CCC(CC2)N1C(=O)c1ccccc1-c1ccccc1)c1cccc2cccnc12` (racemic) [Example 140, N-(((1s,4s)-2-([1,1′-Biphenyl]-2-carbonyl)-2-azabicyclo[2.2.2]octan-3-yl)methyl)quinoline-8-carboxamide] stands more than 7.00; under `Cc1ccc(NC[C@@H]2[C@H](C)CCCN2C(=O)c2nc(C)sc2-c2ccc(F)cc2)nc1` (racemic) [Example 86, rac-cis-(3-Methyl-2-(((5-methylpyridin-2-yl)amino)methyl)piperidin-1-yl)(5-(4-fluorophenyl)-2-methylthiazol-4-yl)methanone], 7.66; under `Cc1nc(C(=O)N2CCC[C@@H](C(C)C)[C@H]2CNc2nc3ccccc3o2)c(-c2ccc(F)cc2)s1` (racemic) [Example 84, rac-cis-((2S,3S)-2-((Benzo[d]oxazol-2-ylamino)methyl)-3-isopropylpiperidin-1-yl)(5-(4-fluorophenyl)-2-methylthiazol-4-yl)methanone], 7.46.
As for `Cc1nc(-c2ccccc2)c(C(=O)N2C[C@@H]3CCCC[C@@H]3[C@H]2CNC(=O)c2cccc3cccnc23)s1` (racemic) [Example 64, N-(((1S,3aR,7aS)-2-(2-Methyl-4-phenylthiazole-5-carbonyl)octahydro-1H-isoindol-1-yl)methyl)quinoline-8-carboxamide], the pIC50 is 5.52.
For `Cc1cc2c(C(=O)NCC3CCCC(C)N3C(=O)c3nc(C)sc3-c3ccc(F)cc3)cccc2o1` (racemic) [Example 61, rac-N-((1-(5-(4-Fluorophenyl)-2-methylthiazole-4-carbonyl)-6-methylpiperidin-2-yl)methyl)-2-methylbenzofuran-4-carboxamide], the pIC50 is 8.15.
`Cc1nc(C(=O)N2CC3CCCCC3C2CNC(=O)c2cccc3occc23)c(-c2ccccc2)s1` (single isomer, unassigned) [Example 70]: the pIC50 is 6.77.
Consider `Cc1ccc(-c2cccnc2)c(C(=O)N2CCC[C@@H](C)[C@H]2CNc2ccc(C(F)(F)F)cn2)c1` (racemic) [Example 104, rac-cis-(3-Methyl-2-(((5-(trifluoromethyl)pyridin-2-yl)amino)methyl)piperidin-1-yl) (5-methyl-2-(pyridin-3-yl)phenyl)methanone], for which the pIC50 was 9.00.
Turning to `Cc1nc(C(=O)N2CC(F)(F)CCC2CNC(=O)c2cccc3cccnc23)c(-c2cccc(F)c2)s1` (racemic) [Example 52, rac-N-((5,5-Difluoro-1-(5-(3-fluorophenyl)-2-methylthiazole-4-carbonyl)piperidin-2-yl)methyl)quinoline-8-carboxamide], the pIC50 is 9.00.
Turning to `CC[C@@H]1CCCN(C(=O)c2nc(C)sc2-c2ccc(F)cc2)[C@@H]1CNc1ccc(C(F)(F)F)cn1` (racemic) [Example 76, rac-cis-(3-Ethyl-2-(((5-(trifluoromethyl)pyridin-2-yl)amino)methyl)piperidin-1-yl)(5-(4-fluorophenyl)-2-methylthiazol-4-yl)methanone], the pIC50 is 6.52.
On to `Cc1ccc(-n2ccnn2)c(C(=O)N2CCC[C@@H](C)[C@H]2CNc2ccc(C(F)(F)F)cn2)c1` (racemic) [Example 115, rac-cis-(3-Methyl-2-(((5-(trifluoromethyl)pyridin-2-yl)amino)methyl)piperidin-1-yl)(5-methyl-2-(1H-1,2,3-triazol-1-yl)phenyl)methanone], for which the pIC50 was 8.00.
In the case of `Cc1ccc(-n2nccn2)c(C(=O)N2CCC[C@@H](C)[C@H]2CNc2ncc(C(F)(F)F)cn2)c1` (racemic) [Example 97, rac-cis-(3-Methyl-2-(((5-(trifluoromethyl)pyrimidin-2-yl)amino)methyl)piperidin-1-yl)(5-methyl-2-(2H-1,2,3-triazol-2-yl)phenyl)methanone], the pIC50 is 8.05.
In the case of `CO[C@@H]1CCCN(C(=O)c2nc(C)sc2-c2ccc(F)cc2)[C@@H]1CNc1nc2ccccc2s1` (racemic) [Example 94, rac-cis-(2-((Benzo[d]thiazol-2-ylamino)methyl)-3-methoxypiperidin-1-yl)(5-(4-fluorophenyl)-2-methylthiazol-4-yl)methanone], the pIC50 is 7.12.
As to `Cc1nc(-c2ccccc2)c(C(=O)N2CC(NC(C)C)CCC2CNC(=O)c2cccc3cccnc23)s1` (racemic) [Example 48, N-((5-(Isopropylamino)-1-(2-methyl-4-phenylthiazole-5-carbonyl)piperidin-2-yl)methyl)quinoline-8-carboxamide], the pIC50 was more than 5.00.
Still for that read-out and setting: under `CO[C@@H]1CCCN(C(=O)c2nc(C)sc2-c2ccc(F)cc2)[C@@H]1CNc1ccc(C(F)(F)F)cn1` (racemic) [Example 92, rac-cis-(3-Methoxy-2-(((5-(trifluoromethyl)pyridin-2-yl)amino)methyl)piperidin-1-yl) (5-(4-fluorophenyl)-2-methylthiazol-4-yl)methanone] stands 6.25; under `Cc1nc(C(=O)N2CCC[C@@H](C)[C@H]2CNc2cc(C(F)(F)F)ccn2)c(-c2ccc(F)cc2)s1` (racemic) [Example 21, rac-cis-(5-(4-Fluorophenyl)-2-methylthiazol-4-yl)(3-methyl-2-(((4-(trifluoromethyl)pyridin-2-yl)amino)methyl)piperidin-1-yl)methanone], 7.62; under `Cc1nc(-c2ccccc2)c(C(=O)N2CCC(=O)[C@H]2CNC(=O)c2cccc3cccnc23)s1` [Example 132, (R)—N-((1-(2-Methyl-4-phenylthiazole-5-carbonyl)-3-oxopyrrolidin-2-yl)methyl)quinoline-8-carboxamide], 6.64.
